Laboratory results from paper PMC8421406, “C9orf72-derived arginine-rich poly-dipeptides impede phase modifiers” (Nature Communications, 2021).
Where no end group is shown, it is not given here. HA = HA epitope tag

Tests used:
[1] = tested on: GFP:FUS-LC:NLS / mCh:FUS-LC hydrogel; test: Hydrogel binding assay, GFP:FUS-LC:NLS on mCh:FUS-LC hydrogel; type: biochemical; conditions: Kapβ2 0.1-1.0 µM; PR20 with 1.0 µM Kapβ2
Procedure: The experiment was independently repeated three times with similar results. Here, 10 μm scale bars are shown in the image. e Graphical description of hydrogel binding assay. Hydrogels of mCh:LC-domain accumulate GFP:LC-domain as it co-polymerizes. f Hydrogel binding assay for FUS-LC in the absence and presence of Kapβ2. mCh:FUS-LC (lower images) were incubated with 1.0 µM of GFP (left panel) or 1.0 µM of GFP:FUS-LC:NLS (right panel) in the presence of different concentrations of Kapβ2 (left to right: 0.1, 0.3, and 1.0 µM). g Quantitative analysis of Fig. 1f. Relative intensity of GFP signals is shown as the mean of three independent experiments ± SD, analyzed by one-way ANOVA followed by Dunnett’s multiple comparison test (**P < 0.01, ***P < 0.001). h Hydrogel binding assay for FUS-LC in the absence and presence of Kapβ2 and/or PR20. Hydrogel droplets of mCh:FUS-LC (lower images) were incubated with 1.0 µM of GFP (left panel) or GFP:FUS-LC:NLS (right panel). GFP:FUS-LC:NLS containing Kapβ2 (1.0 µM) was challenged for homotypic polymer extension in the absence or presence of different concentration of PR20. i Quantitative analysis of Fig. 1h. Relative intensity of GFP signals is shown as the mean of three independent experiments ± SD, analyzed by one-way ANOVA followed by Dunnett’s multiple comparison test (**P < 0.01). Source data are provided as a Source Data file. […]

[2] = tested on: GFP:hnRNPA2-LC / mCh:hnRNPA2-LC hydrogel; test: Hydrogel binding assay, hnRNPA2-LC; type: biochemical; conditions: 1.0 µM GFP:hnRNPA2-LC, Kapβ2 1.0 µM, PR20 1.0 µM
Source text: Expression plasmids for recombinant proteins (GFP/mCherry fusion LC-domain of FUS (residue 2–214, GFP/mCh:FUS-LC) and GFP/mCherry fusion LC-domain of hnRNPA2 (residue 181–341, GFP/mCh:hnRNPA2-LC)) were obtained from the Steven L. McKnight Laboratory. Expression plasmid for GFP:FUS-LC fusion NLS (residue 501–526, GFP:FUS-LC:NLS), mCh fusion LC-domain of TDP43 (residue 262–414, mCh:TDP43-LC), and GFP-tagged cNLS (residue 78–99) fusion TDP43-LC (GFP:cNLS:TDP43-LC) were constructed using In-Fusion HD Cloning Kit (Takara Bio, Inc.). GFP/mCh:FUS-LC, GFP:FUS-LC:NLS, and GFP/mCh:hnRNPA2-LC were expressed in E. coli BL21(DE3) cells with 0.5 mM IPTG at 20 °C overnight and purified by Ni-NTA Agarose (FUJIFILM Wako Pure Chemical Corporation), as described in a previous study. GFP:cNLS:TDP43-LC were expressed with 1.0 mM IPTG at 37 °C for 3 h and mCh:TDP43-LC were expressed with 0.5 mM IPTG at 16 °C overnight. GFP:cNLS:TDP43-LC and mCh:TDP43-LC were purified by Ni-NTA as described in a previous study[48] with some modifications. […] Relative intensity of GFP signals across the hydrogel droplets were measured in triplicate by using the profile plot mode in ImageJ. […]

PR20: twenty repeats of proline:arginine with an HA epitope tag at the C terminus, synthesized by SCRUM, Inc. (PRPRPRPRPRPRPRPRPRPRPRPRPRPRPRPRPRPRPRPR-{HA})
Effect on hydrogel binding of GFP:FUS-LC:NLS [1]: inhibited the ability of Kapβ2 from blocking the hydrogel binding of GFP:FUS-LC:NLS | Effect on ability of Kapβ2 to block hydrogel binding of hnRNPA2-LC [2]: inhibited the ability of Kapβ2
